Results taken from US20240262817A1, “QUINAZOLINE DERIVATIVES TARGETING R(CCUG) REPEATS IN MYOTONIC DYSTROPHY TYPE 2” (University of Florida Research Foundation, Incorporated, priority 2021, published 2024).

Legend:
[1] = test system: r(CCUG)12-MBNL1 complex; test: TR-FRET assay, disruption of pre-formed r(CCUG)12-MBNL1 complex; assay type: biochemical; conditions: in vitro, read-out: IC50 for disrupting an r(CCUG)12-MBNL1 complex
Description: Of the 44 hits, 38 contained a similar substituted N2-phenylquinazoline-2,4-diamine core, while the other hits contained benzimidazoles and indazoles (Figure S2). Importantly, these 44 compounds are drug-like as they have similar physicochemical properties to the rest of the library and to known-drugs in Drug Bank (FIG. 2A). On average, the 44 hit compounds have a molecular weight of 327±35 g/mol, a cLogP of 3.2±0.9. TPSA of 76±15 Å, and 2.5±0.9 hydrogen bond donors. The in vitro potencies (IC50s) of the 44 compounds were then measured in the TR-FRET assay, affording seven compounds (1-7) with IC50s <50 μM (highlighted in red in FIGS. 2B & 2C).
In vitro IC50 measurements: IC50 measurements for disruption of r(CCUG)12-MBNL1 complex was completed using a previously reported TR-FRET assay with minor modifications.^23, 24 Briefly, 5′-biotinylated r(CCUG)12 (SEQ ID NO: 15) was folded in 1× Folding Buffer (20 mM HEPES, pH 7.5, 110 mM KCl, and 10 mM NaCl) at 60° C. for 5 min then cooled to room temperature. The buffer was adjusted to 1× Assay Buffer (20 mM HEPES, pH 7.5, 110 mM KCl, 10 mM NaCl, 2 mM MgCl2, 2 mM CaCl2), 5 mM DTT. 0.1% BSA, and 0.5% Tween-20).
Next, MBNL1-His6 was added, and the samples were incubated at room temperature for 15 min. […] The samples were incubated for 30 min at room temperature and added to a white 384-well plate, where TR-FRET was measured on a Molecular Devices SpectraMax M5 plate reader using an excitation wavelength of 345-nm and a 420-nm cutoff. The ratios of fluorescence intensity at 545 and 665 nm were calculated, and ratios in the absence of a compound and in the absence of RNA were used to calculate percent disruption. […]
[formula] • where y is ratio of fluorescence intensities at 545 nm and 665 nm (F545/F665), x is the concentration of a compound, B is F545/F665 value at max FRET effect (solution has RNA and protein but no compound added); A is F545/F665 value at min FRET effect (solution has antibodies but no RNA, protein, or compound); and the IC50 is the concentration of a compound where half of the protein is displaced by a compound.

[2] = test system: DM2 patient-derived fibroblasts; test: Cell viability by CellTiter-Glo; assay type: cell-based
Method: Cell lines and cell culture: Compounds were tested in two cell lines: (i) DM2 patient-derived fibroblasts (generous gift from University of Florida, Center for NeuroGenetics) and (ii) fibroblasts from a healthy donor (wild-type; WT GM07492; Coriell Institute). Cells were maintained at 37° ° C. with 5% CO2. DM2 fibroblasts were cultured in DMEM/high glucose (HyClone) supplemented with 20% FBS (Sigma) and 1% Antibiotic-Antimycotic solution (Corning). Wild-type fibroblasts were cultured in MEM (Corning) supplemented with 10% FBS, 1% Glutagro (Corning), and 1% Antibiotic-Antimycotic solution.
Evaluation of cell viability: Compound toxicity in DM2 fibroblasts was evaluated using a CellTiter-Glo Kit (Promega) as described in the manufacturer's protocol. Briefly, after 48 h treatment in 96-wells plates, 100 μL of the CellTiter-Glo reagent was added to each well. The plate was then incubated at room temperature for 10 min, and luminescence was measured using BioTek FLX-800 luminescence plate reader (n=6 replicates; 1 independent experiment).

Q: For `Cc1ccc2nc(Nc3ccc4nc(C)sc4c3)nc(NCCCO)c2c1` [Compound 63, 3-((6-methyl-2-((2-methylbenzo[d]thiazol-6-yl)amino)quinazolin-4-yl)amino)propan-1-ol], which IC50 [1] is on record?
A: The IC50 was 2200 ± 500 nM.

Q: What about the “toxicity as stated in legend of FIG. 3C” value ([2]; DM2 fibroblasts) of the same molecule?
A: Its value is “non-toxic”.

Q: And the “toxicity in DM2 patient-derived fibroblasts” value ([2]; at 5 μM)?
A: The value was “no toxicity”.
